Laboratory results published in patent US10881105B2, “Method for breaking dormancy in deciduous trees” (Tapazol Chemical Works Ltd., priority 2014, dated 2021).

Tested on: Black Gem (P. nigra) plums
Experiment: Bud break assessment after spraying, dormancy release in black gem plums (Example 1)
Format: in vivo
Details: above 15 grams per liter oil; data not shown
Procedure: On the day in which spraying was initiated the number of accumulated chilling units was 14 (being equivalent of 200 hours of chilling). The trees were at a stage where 10% of the bulbs were swollen. Three branches facing different directions were selected in each tree. The upper 20 cm in each branch were examined Each branch contained approximately 13 buds. Each bud was evaluated for bud progression on three separate occasions and bud progression percentages were normalized across the examined branches [table] [table]

## O=[N+]([O-])c1cc(C(F)(F)F)c(Cl)c([N+](=O)[O-])c1Nc1ncc(C(F)(F)F)cc1Cl [fluazinam, 3-chloro-N-(3-chloro-5-trifluoromethyl-2-pyridyl)-α,α,α-trifluoro-2,6-dinitro-p-toluidine]
  efficacy of the composition versus concentration of Fluazinam in oil (regression): the efficacy of the composition decreased
